Experimental data from patent US11751573B2, “Seaweed composition” (priority 2017, dated 2023).

Columns and labels:
[1] = tested on: Tobacco callus/P. lunatus callus; assay: trans-Zeatin equivalents based on Tobacco callus/P. lunatus callus bioassay; type: cell-based; settings: for nM in tZ E[…] KELPAK / nM in tZ EQUIVALENTS IN KELPAK: contribution of the cytokinin in Kelpak
Text: It can be seen from Table 4 that there is significant variation in activity between the cytokinins. The minimum concentration required for an effect and the optimum concentration in the tobacco callus assay are much better for iP and tZ than the other cytokinins, with BA still quite good.
The activity of pT in this assay has not been reported.
Nevertheless, the response of plant growth to different cytokinins can vary depending on the specific circumstances.

tobacco callus = tobacco callus bioassay, cited from earlier work; for MINIMUM CONCENTRATION / OPTIMUM CONCENTRATION: Matsubara 1990, Letham et al. 1983; for minimum concentrations required for activity compared to tZ and BA: fold worse
Phaseolus lunatus callus = settings: cited from earlier work; for EC50: Phaseolus lunatus callus, Mok et al. 2005, read-out: concentration at which one half of the maximal growth is achieved; for MINIMUM CONCENTRATION / OPTIMUM CONCENTRATION: P. lunatus callus bioassay, Matsbuara 1990
[2] = tested on: Phaseolus vulgaris callus; settings: Phaseolus vulgaris callus assay; Matsbuara 1990; cited from earlier work
Pea test = settings: used to make it equivalent to IAA; Pilet 1971; cited from earlier work
[3] = contribution of the cytokinin in Composition 2
[4] = contribution of the cytokinin in Composition 1

trans-zeatin-O-glucoside [trans-zeatin-O-glucoside (tZOG)]
nM in tZ E[…] KELPAK [1]: 3.6 nM
MINIMUM CONCENTRATION (tobacco callus): 0.001 µM

Oc1ccccc1CNc1ncnc2nc[nH]c12 [ortho-topolin (oT), ortho-topolin]
nM in tZ EQUIVALENTS IN KELPAK [1]: 0.002 nM
EC50 (Phaseolus lunatus callus): ~1000 nM
minimum concentrations required for activity compared to tZ and BA (tobacco callus; Holub et al. 1998): 100 fold

c1coc(CNc2ncnc3[nH]cnc23)c1 [kinetin (K), kinetin]
MINIMUM CONCENTRATION (tobacco callus): 0.001 µM
OPTIMUM CONCENTRATION (tobacco callus): 0.1 µM

CC(CCNc1ncnc2nc[nH]c12)CO[C@@H]1O[C@H](CO)[C@@H](O)[C@H](O)[C@H]1O (stereo partly drawn) [Dihydrozeatin-O-glucoside (DHZOG), Dihydrozeatin-O-glucoside]
MINIMUM CONCENTRATION (tobacco callus): 0.001 µM

CC(CO)CCNc1ncnc2c1ncn2[C@@H]1O[C@H](CO)[C@@H](O)[C@H]1O (stereo partly drawn) [dihydrozeatin riboside (DHZR), dihydrozeatin riboside]
nM in tZ EQUIVALENTS IN KELPAK [1]: 0.00001 nM
MINIMUM CONCENTRATION (tobacco callus): 0.01 µM
OPTIMUM CONCENTRATION (tobacco callus): 4 µM

c1ccc(CNc2ncnc3nc[nH]c23)cc1 [N6-benzyladenine (BA), N6-benzyladenine]
nM in tZ EQUIVALENTS IN 90° C. EXTRACT (COMPOSITION 2) [1, 3]: 0.0002 nM
nM in tZ EQUIVALENTS IN KELPAK [1]: 0.01 nM
MINIMUM CONCENTRATION (Phaseolus lunatus callus): 0.01 µM
OPTIMUM CONCENTRATION (Phaseolus lunatus callus): 3 µM
EC50 (Phaseolus lunatus callus): ~40 nM
MINIMUM CONCENTRATION (tobacco callus): 0.0008 µM
OPTIMUM CONCENTRATION (tobacco callus): 0.07 µM
MINIMUM CONCENTRATION [2]: 0.001 µM

Oc1cccc(CNc2ncnc3nc[nH]c23)c1 [mT, meta-topolin]
EC50 (Phaseolus lunatus callus): ~50 nM
optimum concentration compared to tZ (tobacco callus; Holub et al. 1998): similar
minimum concentrations required for activity compared to tZ and BA (tobacco callus; Holub et al. 1998): similar

trans-zeatin-9-glucoside [trans-zeatin-9-glucoside (tZ9G)]
MINIMUM CONCENTRATION (tobacco callus): >50 µM

CC(CO)CCNc1ncnc2nc[nH]c12 (stereo not drawn) [dihydrozeatin (DHZ), dihydrozeatin]
MINIMUM CONCENTRATION (tobacco callus): 0.01 µM
OPTIMUM CONCENTRATION (tobacco callus): 0.4 µM

Oc1ccc(CNc2ncnc3nc[nH]c23)cc1 [para-topolin (pT), para-topolin]
nM in tZ EQUIVALENTS IN ROOM TEMPERATURE EXTRACT (COMPOSITION 1) [1, 4]: 0.0001 nM
nM in tZ EQUIVALENTS IN 90° C. EXTRACT (COMPOSITION 2) [1, 3]: 0.09 nM
EC50 (Phaseolus lunatus callus): ~30000 nM

OC[C@H]1O[C@@H](n2cnc3c(NCc4ccccc4O)ncnc32)[C@H](O)[C@@H]1O [oTR, ortho-topolin riboside]
minimum concentrations required for activity compared to tZ and BA (tobacco callus; Holub et al. 1998): 100 fold

cis-zeatin riboside [cis-zeatin riboside (cZR)]
MINIMUM CONCENTRATION (tobacco callus): 0.03 µM
OPTIMUM CONCENTRATION (tobacco callus): 0.3 µM

C/C(=C/CNc1ncnc2nc[nH]c12)CO [cis-zeatin (cZ), cis-zeatin]
nM in tZ E[…] ROOM T[…] (COMPOSITION 1) [1, 4]: 0.03 nM
nM in tZ E[…] 90° C. EXTRACT (COMPOSITION 2) [1, 3]: 0.03 nM
nM in tZ E[…] KELPAK [1]: 0.00008 nM
MINIMUM CONCENTRATION (Phaseolus lunatus callus): 0.03 µM
OPTIMUM CONCENTRATION (Phaseolus lunatus callus): 3 µM
EC50 (Phaseolus lunatus callus): ~300 nM
MINIMUM CONCENTRATION (tobacco callus): 0.03 µM
OPTIMUM CONCENTRATION (tobacco callus): 0.5 µM
MINIMUM CONCENTRATION [2]: 0.01 µM
OPTIMUM CONCENTRATION [2]: 3 µM

trans-zeatin riboside-O-glucoside
nM in tZ E[…] KELPAK [1]: 0.0005 nM
MINIMUM CONCENTRATION (tobacco callus): 0.003 µM

C/C(=C\CNc1ncnc2c1ncn2[C@@H]1O[C@H](CO)[C@@H](O)[C@H]1O)CO (relative stereo) [trans-zeatin riboside (tZR), trans-zeatin riboside]
MINIMUM CONCENTRATION (Phaseolus lunatus callus): 0.003 µM
OPTIMUM CONCENTRATION (Phaseolus lunatus callus): 0.1 µM
MINIMUM CONCENTRATION (tobacco callus): 0.003 µM
OPTIMUM CONCENTRATION (tobacco callus): 0.3 µM
MINIMUM CONCENTRATION [2]: 0.03 µM
OPTIMUM CONCENTRATION [2]: 3 µM

COC(=O)C(=O)c1c[nH]c2ccccc12 [IGAMe, indole-3-glyoxylic acid methyl ester]
activity relative to IAA (Pea test): 1/28

C/C(=C\CNc1ncnc2nc[nH]c12)CO [trans-zeatin (tZ), trans-zeatin]
nM in tZ E[…] KELPAK [1]: 0.29 nM
MINIMUM CONCENTRATION (Phaseolus lunatus callus): 0.001 µM
OPTIMUM CONCENTRATION (Phaseolus lunatus callus): 0.3 µM
EC50 (Phaseolus lunatus callus): ~20 nM
MINIMUM CONCENTRATION (tobacco callus): 0.0001 µM
OPTIMUM CONCENTRATION (tobacco callus): 0.004 to 0.05 µM
MINIMUM CONCENTRATION [2]: 0.0301 µM
OPTIMUM CONCENTRATION [2]: 3 µM

CC(CCNc1ncnc2c1ncn2C1OC(CO)C(O)C1O)COC1OC(CO)C(O)C(O)C1O (stereo not drawn) [dihydrozeatin riboside-O-glucoside]
nM in tZ EQUIVALENTS IN KELPAK [1]: 0.00003 nM
MINIMUM CONCENTRATION (tobacco callus): 0.002 µM

OC[C@H]1O[C@@H](n2cnc3c(NCc4ccccc4)ncnc32)[C@H](O)[C@@H]1O [N6-benzyladenosine (BAR), N6-benzyladenosine]
nM in tZ EQUIVALENTS IN KELPAK [1]: 0.0001 nM
MINIMUM CONCENTRATION (tobacco callus): 0.02 µM
OPTIMUM CONCENTRATION (tobacco callus): 1 µM
